The source made the active and inactive calls.
Columns and labels:
[1] = intracellular Trypanosoma cruzi inhibitors in host cells – cell-based, plate reader, cherry-pick samples, set 3, dose response (AID 651818); type: functional;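 note: compounds incubated with infected cells for about four days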
[2] = target: T1, Polyadenylate-binding protein 1 (Homo sapiens, UniProt P11940); test: MLLE binding blockers, Cy5 peptide tracer – biochemical, fluorescence polarization, Cy5-PAM2 peptide, secondary, miRNA deadenylation inhibitor project, dose response (AID 602260); type: functional; settings: read-out: IC50_Mean
T1 sequence (P11940 whole entry, the tested form may be a part): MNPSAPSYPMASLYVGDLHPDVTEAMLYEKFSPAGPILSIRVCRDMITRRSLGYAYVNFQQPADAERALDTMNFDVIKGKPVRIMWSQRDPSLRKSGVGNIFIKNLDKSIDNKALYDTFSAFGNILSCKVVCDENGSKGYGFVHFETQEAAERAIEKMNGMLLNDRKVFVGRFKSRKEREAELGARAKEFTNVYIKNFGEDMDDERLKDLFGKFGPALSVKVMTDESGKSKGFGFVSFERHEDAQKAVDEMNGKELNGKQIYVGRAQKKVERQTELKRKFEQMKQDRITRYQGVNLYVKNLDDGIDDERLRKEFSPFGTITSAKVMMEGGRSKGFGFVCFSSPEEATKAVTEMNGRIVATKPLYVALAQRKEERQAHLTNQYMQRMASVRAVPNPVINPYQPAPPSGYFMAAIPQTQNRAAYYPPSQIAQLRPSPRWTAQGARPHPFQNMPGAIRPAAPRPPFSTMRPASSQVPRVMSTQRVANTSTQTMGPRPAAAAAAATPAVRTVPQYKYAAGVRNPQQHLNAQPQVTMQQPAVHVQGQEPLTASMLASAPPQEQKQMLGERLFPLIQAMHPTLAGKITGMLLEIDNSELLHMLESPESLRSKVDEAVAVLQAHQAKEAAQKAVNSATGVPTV

[3] = target: T1, Polyadenylate-binding protein 1; test: MLLE domain peptide-binding blockers, IC50 – biochemical, fluorescence polarization, FITC-PAM2 peptide, dose response (AID 602259); type: functional; settings: read-out: IC50_Mean
[4] = target: T2, Microphthalmia-associated transcription factor (Homo sapiens, UniProt O75030); test: reducers of TRPM1 reporter luminescence, concentration series – cell-based, SK-MEL-5, cherry-picked, set 3, MITF inhibitor project, dose response (AID 493073); type: functional;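 note: SK-MEL-5 melanoma cells with luciferase driven by the MITF target TRPM1 promoter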
T2 sequence (O75030 whole entry): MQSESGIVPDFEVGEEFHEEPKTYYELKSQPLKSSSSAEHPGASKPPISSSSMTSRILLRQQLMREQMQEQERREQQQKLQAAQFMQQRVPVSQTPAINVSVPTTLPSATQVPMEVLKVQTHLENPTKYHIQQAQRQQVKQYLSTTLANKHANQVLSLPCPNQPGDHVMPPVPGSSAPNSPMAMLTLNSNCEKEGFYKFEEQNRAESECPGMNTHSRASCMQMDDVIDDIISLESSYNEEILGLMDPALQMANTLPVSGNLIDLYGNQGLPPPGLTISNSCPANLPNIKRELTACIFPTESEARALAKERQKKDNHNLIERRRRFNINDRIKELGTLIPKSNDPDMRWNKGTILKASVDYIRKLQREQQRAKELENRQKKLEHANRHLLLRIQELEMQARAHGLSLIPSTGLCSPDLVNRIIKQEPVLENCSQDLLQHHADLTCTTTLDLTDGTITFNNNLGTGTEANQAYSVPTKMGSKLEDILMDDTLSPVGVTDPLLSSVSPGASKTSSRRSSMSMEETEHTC

Cytochrome P450 1A2 = target: T3, Cytochrome P450 1A2 (Homo sapiens, UniProt P05177);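 note: PubChem cytochrome P450 panel assay, CYP1A2 panel member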
T3 sequence (P05177 whole entry): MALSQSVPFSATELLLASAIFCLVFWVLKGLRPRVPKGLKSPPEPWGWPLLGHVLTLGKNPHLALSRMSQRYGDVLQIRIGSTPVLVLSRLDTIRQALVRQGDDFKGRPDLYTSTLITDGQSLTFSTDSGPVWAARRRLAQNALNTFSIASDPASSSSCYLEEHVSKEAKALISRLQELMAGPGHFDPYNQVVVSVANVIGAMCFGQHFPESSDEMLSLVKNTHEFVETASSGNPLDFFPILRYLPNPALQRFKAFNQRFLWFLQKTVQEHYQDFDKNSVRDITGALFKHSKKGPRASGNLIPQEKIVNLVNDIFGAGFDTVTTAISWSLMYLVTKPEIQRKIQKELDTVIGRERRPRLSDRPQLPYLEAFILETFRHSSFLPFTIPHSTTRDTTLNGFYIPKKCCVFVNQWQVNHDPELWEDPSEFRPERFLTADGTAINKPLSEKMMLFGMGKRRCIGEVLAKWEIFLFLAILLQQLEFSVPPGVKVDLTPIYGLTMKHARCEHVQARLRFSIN

Cytochrome P450 2C9 = Cytochrome P450 2C9 (Homo sapiens, UniProt P11712)
Cytochrome P450 2C9, sequence (P11712 whole entry): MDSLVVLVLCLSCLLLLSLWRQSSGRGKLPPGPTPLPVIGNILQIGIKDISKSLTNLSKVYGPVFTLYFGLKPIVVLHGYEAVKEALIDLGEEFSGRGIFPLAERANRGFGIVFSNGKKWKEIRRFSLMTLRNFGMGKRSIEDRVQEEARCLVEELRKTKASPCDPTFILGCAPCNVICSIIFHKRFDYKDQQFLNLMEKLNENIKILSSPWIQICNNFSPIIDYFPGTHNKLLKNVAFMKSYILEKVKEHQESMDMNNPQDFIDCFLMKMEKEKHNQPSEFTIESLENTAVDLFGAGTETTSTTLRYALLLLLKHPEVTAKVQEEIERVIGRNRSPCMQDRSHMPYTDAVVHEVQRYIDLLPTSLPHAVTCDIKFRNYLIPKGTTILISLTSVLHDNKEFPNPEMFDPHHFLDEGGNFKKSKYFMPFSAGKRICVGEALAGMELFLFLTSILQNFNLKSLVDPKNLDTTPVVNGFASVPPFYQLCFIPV

[5] = microbe, parasite or virus in culture; type: functional; settings: Mycobacterium tuberculosis
Tumor necrosis factor = Tumor necrosis factor (Homo sapiens, UniProt P01375); test: analog potency on TNFa NF-kB signaling – cell-based, revised, SAR follow-up (AID 2337); type: functional
Tumor necrosis factor, sequence (P01375 whole entry): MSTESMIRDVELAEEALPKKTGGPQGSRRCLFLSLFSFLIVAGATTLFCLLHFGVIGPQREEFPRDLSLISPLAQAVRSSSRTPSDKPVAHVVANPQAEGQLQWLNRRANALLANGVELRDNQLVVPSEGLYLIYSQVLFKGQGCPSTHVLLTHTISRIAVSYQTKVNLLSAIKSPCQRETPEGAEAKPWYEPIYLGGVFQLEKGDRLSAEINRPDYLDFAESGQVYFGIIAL

HEK293 = test: cells; settings: Homo sapiens;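 note: cells exposed to compound for 14 hours overnight before viability readout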
[6] = target: T4, Short transient receptor potential channel 4 (Mus musculus, UniProt Q9QUQ5); test: block of DAMGO-driven TRPC4 calcium entry – cell-based, HEK293 TRPC4/mu-opioid, Fluo-4 calcium, dose response (AID 434942); type: functional;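 note: potency of inhibitors blocking the TRPC4 calcium response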
T4 sequence (Q9QUQ5 whole entry): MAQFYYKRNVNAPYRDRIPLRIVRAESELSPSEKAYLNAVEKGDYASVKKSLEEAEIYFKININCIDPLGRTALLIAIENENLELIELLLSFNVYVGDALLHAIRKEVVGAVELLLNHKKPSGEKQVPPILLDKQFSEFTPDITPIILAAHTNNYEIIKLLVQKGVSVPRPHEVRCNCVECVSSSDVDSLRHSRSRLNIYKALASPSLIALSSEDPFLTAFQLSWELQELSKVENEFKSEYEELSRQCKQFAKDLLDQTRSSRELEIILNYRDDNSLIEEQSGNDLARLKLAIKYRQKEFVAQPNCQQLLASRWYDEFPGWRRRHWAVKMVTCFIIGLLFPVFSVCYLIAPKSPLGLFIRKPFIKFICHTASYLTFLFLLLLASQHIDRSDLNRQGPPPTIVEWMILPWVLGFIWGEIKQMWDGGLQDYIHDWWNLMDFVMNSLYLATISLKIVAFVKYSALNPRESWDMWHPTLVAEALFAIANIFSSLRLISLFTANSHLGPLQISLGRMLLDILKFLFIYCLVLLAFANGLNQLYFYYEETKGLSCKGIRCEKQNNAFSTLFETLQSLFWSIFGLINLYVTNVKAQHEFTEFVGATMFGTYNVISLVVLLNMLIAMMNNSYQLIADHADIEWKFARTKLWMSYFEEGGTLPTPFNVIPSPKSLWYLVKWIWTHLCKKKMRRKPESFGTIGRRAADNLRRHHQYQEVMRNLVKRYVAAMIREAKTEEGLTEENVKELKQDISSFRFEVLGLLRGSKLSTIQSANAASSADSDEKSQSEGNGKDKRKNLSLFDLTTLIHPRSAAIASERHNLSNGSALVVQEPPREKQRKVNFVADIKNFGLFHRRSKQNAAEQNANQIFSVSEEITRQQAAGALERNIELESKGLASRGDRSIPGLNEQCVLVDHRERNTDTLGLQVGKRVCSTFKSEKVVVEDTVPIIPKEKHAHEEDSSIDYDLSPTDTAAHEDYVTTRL

[7] = Trypanosoma cruzi growth suppression in host cells – NIH3T3 host cells, beta-gal luminescence, confirmation (AID 2044); type: functional, cell-based;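 note: intracellular parasites grown in NIH/3T3 mouse fibroblasts as host cells; luminescent beta-galactosidase reporter signal from transgenic T. cruzi replicating inside host cells; inhibitors lower the luminescence signal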
[8] = NIH3T3 cell viability loss – ATP luminescence, mouse fibroblasts, counter-screen, dose response (AID 2010); type: functional, cell-based;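 note: cells exposed to compound for about 90 hours before reading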
[9] = blockers of HIV-1 envelope-mediated cell-cell fusion – cherry-pick, dose response (AID 652057); type: functional, cell-based
[10] = viability loss in CEM21 cells – cell-based, CellTiter-Glo luminescence, cherry-picked, cytotoxicity control for viral fusion inhibitor project, dose response (AID 652042); type: functional;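 note: potency for signal decrease meaning cytotoxicity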
[11] = blockers of HIV-1 ZM109 envelope-driven cell-cell fusion – HeLa effector, CEM target cells, luciferase, cherry-pick, dose response (AID 652058); type: functional, cell-based;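 note: luciferase signal from HIV-1 Env mediated cell-cell fusion of effector and target cells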
[12] = HIV-1 AD8 envelope cell-cell fusion blockers – cherry-pick, dose response (AID 652062); type: functional, cell-based;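 note: luciferase signal from cell-cell fusion driven by HIV-1 clade B AD8 Env; potency is for inhibitors of fusion seen as a drop in luminescence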

Cc1noc(C)c1S(=O)(=O)Nc1ccc2c(c1)CC(=O)N([C@H](C)CO)C[C@@H](C)[C@H](CN(C)Cc1ccc(Cl)c(Cl)c1)O2
AC50 [1]: 6.32 µM (active)

CN(CC(=O)Nc1cccc(F)c1)C(=O)CNS(=O)(=O)c1ccc(N(C)C)c([N+](=O)[O-])c1
IC50 [2]: > 66 µM (inactive) | IC50 [3]: > 66 µM (inactive)

O=C(O)c1cc2ccccc2c(N=Nc2cccnc2)c1O
AC50 [4]: 11.4 µM (active)

COc1ccc(CNc2ncnc3ccc(-c4ccccc4CN(C)C)cc23)c(OC)c1
AC50 (Cytochrome P450 1A2): 31.6 µM (inconclusive) | AC50 (Cytochrome P450 2C9): inconclusive

Cc1nc2nc(C)c(NS(=O)(=O)c3ccc4c(c3)CCCC4)c(O)n2n1
AC50 [4]: 136 µM (active)

CC(C)(C)c1ccc(C2C3=C(CCCC3=O)N=C3C2=C(O)c2ccccc23)cc1 (stereo not drawn)
CC50 [5]: > 40 µM (active)

COc1ccc(C)cc1-n1nnnc1SCn1nnc2ccccc2c1=O
IC50 [2]: > 66 µM (inactive) | IC50 [3]: > 66 µM (inactive)

C[C@H]1CN([C@@H](C)CO)C(=O)c2cccc(NS(=O)(=O)c3ccccc3)c2O[C@H]1CN(C)Cc1ccc(Oc2ccccc2)cc1
AC50 [1]: 6.61 µM (active)

CC(=O)N1CCc2cc(S(=O)(=O)N3CCN(c4ccc(Cl)cc4)CC3)ccc21
IC50 (Tumor necrosis factor): > 20 µM (inactive) | IC50 (HEK293): > 20 µM (inactive)

CCOC(=O)C1(CCc2ccccc2)CCN(Cc2cccc3c2OCO3)CC1
EC50 [6]: 0.668 µM (active)

CCOC(=O)c1cnc(Nc2nc3ccccc3o2)nc1CSC(=S)N(CC)CC
EC50 [7]: 0.17 µM (active) | CC50 [5]: 28 µM (active) | EC50 [8]: > 60 µM (not active)

CN1CCN(C2=C(Cl)C(=O)N(CCc3ccccc3)C2=O)CC1
IC50 [2]: > 66 µM (inactive) | IC50 [3]: 49.1 µM (inactive)

COc1ccc(CNC(=O)N(C)C[C@H]2OCc3ccccc3-c3c(n(C)c4ccccc34)C(=O)N([C@H](C)CO)C[C@@H]2C)cc1
AC50 [9]: < 0.26 µM (active) | AC50 [10]: 60.8 µM (active) | AC50 [11]: < 0.26 µM (active) | AC50 [12]: < 0.26 µM (active)

— ChEMBL document CHEMBL1201862, “PubChem BioAssay data set” (2004)
